Test in all cases: Antimicrobial serial dilution assay (MIC)
Type in all cases: cell-based

Assay [1] has as its system Staphylococcus aureus DSM 346. The following applies: serial dilution 67 to 0.5 µg/mL, overnight. Here is the method: (§1) Antimicrobial activity was determined by our established protocol, according to Becker et al.. In general, all of the pure compounds were dissolved in MeOH with a concentration of 1 mg/mL. Assessment of the antimicrobial activity was determined using the serial dilution assay method to calculate the minimum inhibitory concentration (MIC). In this method, the compounds were diluted in a range between 67 and 0.5 µg/mL in 96 well-plate and incubated with the test organism overnight. The next day, growth of the test organisms was visually observed, and MIC was determined in the lowest concentration where a clear zone (no growth of test organism) was observed. In our attempt for novel anti-infective compounds, an established standard protocol using various organisms representing a broad spectrum of pathogens of clinical interest, as well as sensitive indicator strains, was used (bacteria: Bacillus subtilis DSM 10, Staphylococcus aureus DSM 346, Acinetobacter baumanii DSM 30008, Chromobacterium violaceum DSM 30191, Escherichia coli DSM 1116 and Pseudomonas aeruginosa PA14; mycobacteria: Mycobacterium smegmatis ATCC 700084 and fungi: Candida albicans DSM 1665, Schizosaccharomyces pombe DSM 70572, Mucor hiemalis DSM 2656, Wickerhamomyces anomala DSM 6766 and Rhodotorula glutinis DSM 10134). Methanol as a solvent to dissolve the pure compounds was used as the negative control. Oxytetracycline, ciprofloxacin, gentamycin, and kanamycin were used as positive controls against bacteria, whereas nystatin was used against fungi. A detailed experimental procedure can be found in the SI.
(§2) Protocol: Antimicrobial Activity Assay
(§3) The assay was conducted as a minimum inhibitory concentration (MIC) assay in 96-well round- bottom microtiter plates using the parameters summarized in Table S1 and as already described in [S1]. Stocks of the test organisms were generated by growing the organisms overnight in 50 mL shaking flasks filled with 25 mL of the growth medium at 140r p m ( media and temperatures see Table S1). If the organisms were well grown the next day, which was checked by the occurrence of an optical density (OD) […] of the suspension (OD600 nm for bacteria, OD548 nm for fungi and M. smegmatis), aliquots of these were stored in 1.5 mL reaction tubes in a freezer at −80 °C for up to 12 months. Upon use, aliquots were unthawed and the OD of the suspension measured and adjusted by diluting with the respective growth medium. OD600 nm was adjusted to 0.01 and OD548 nm to 0.1. Subsequently, 150 μ L of the adj usted suspensions were added to all wells of a 96-well microtiter plate (one test organism per plate). In row A, additional 130 μ L of suspensions plus 20 μ L of the test compounds (1 mg/mL) and the controls (one compound/column) were added. MeOH was used as negative controls, while different positive controls (references) were used for the test organisms (see Table S1). Then, starting from row A, 150 μ L of t he suspension were transferred to the next row, the contents thoroughly mixed, and 150 μ L transferred to the following row. The remaining 150 μ L after row H were discarded. […]
of the test compounds, ranging from 66.7 μg/mL in row A to 0.52 μ g/mL in row H. The microtiter plates were then incubated overnight on a microplate shaker at 800 rpm at 30 or 37 °C (see Table S1) and were visually evaluated the next day. The MIC is defined as the lowest concentration where no growth of the test organism (clear zone) was observed. […]

In a further assay the test system is Escherichia coli. The following applies: serial dilution 67 to 0.5 µg/mL, overnight. As to the method: as §1, §2, §3
(§4) of the test compounds, ranging from 66.7 μg/mL in row A to 0.52 μ g/mL in row H. The microtiter plates were then incubated overnight on a microplate shaker at 800 rpm at 30 or 37 °C (see Table S1) and were visually evaluated the next day. The MIC is defined as the lowest concentration where no growth of the test organism (clear zone) was observed. A lower MIC thus corresponds to a higher antimicrobial activity of the test compound.
Table S1: MIC assay experiment parameters test organism strain No growth incubation positive control […]
Escherichia coli DSM1116 MHB1 37 oxytetracyclin 1.0mg/ mL […]
(§5) Candidaa lbicans DSM1665 MYC3 30 nystatin 1.0mg/ mL
(§6) Schizosaccharomyces DSM70572 MYC3 30 nystatin 1.0mg/ mL
(§7) Mucor hiemalis DSM2656 MYC3 30 nystatin 1.0mg/ mL
(§8) Wickerhamomyces DSM6766 MYC3 30 nystatin 1.0mg/ mL
(§9) Rhodotorula glutinis DSM10134 MYC3 30 nystatin 1.0mg/ mL […]

The test system of a further assay is Bacillus subtilis DSM 10. The following applies: overnight. As to the method:
as §1, §2, §3, §4
Table S1: MIC assay experiment parameters test organism strain No growth incubation positive control
Bacillus subtilis DSM10 MHB1 30 oxytetracyclin 1.0mg/ mL […]
as §5, §6, §7, §8, §9

Setting [2] is: serial dilution 67 to 0.5 µg/mL.

≈ marks a conversion by molar mass, not a printed value. Like-named read-outs stand apart in the source and are kept apart here.

In general, MIC refers to the smallest concentration in the dilution series that meets the test's criterion for growth inhibition. Take `CC1=CC2CC(C)CCC2C2(C)C(=O)OC(C(=O)O)C(C)C12` (centres unmarked) [compound 3, Colposetin C]: the MIC result (in assay [1]; against Escherichia coli; against Bacillus subtilis DSM 10 (setting [2])) was “n.i” in each case.

`CCC(C(=O)O)C1C(C)=CC2CC(C)CCC2C1(C)C(O)=C1C(=O)C(C)N(C)C1=O` (centres unmarked) [compound 2, Colposetin B]: the MIC result with Escherichia coli is “n.i”; with Bacillus subtilis DSM 10 (DSM10, serial dilution 67 to 0.5 µg/mL, read-out: MIC) it was 67 µg/mL (≈ 160 µM).

Take `CC(C=CCC(C)CCC=C(C)C(=O)C1=C(O)C(C)N(C)C1=O)=CC(C)C(O)C(=O)O` (centres unmarked) [compound 4, Colpomenoic acid A]: the MIC entry (in assay [1]; in the assay on Escherichia coli; in the assay on Bacillus subtilis DSM 10 (setting [2])) was “n.i” throughout.

As for `CC(C=CCC(C)C=CC=C(C)C(=O)C1=C(O)C(C)N(C)C1=O)=CC(C)C(O)C(=O)O` (centres unmarked) [compound 5, Colpomenoic acid B], the MIC entry (in assay [1]; with Escherichia coli; against Bacillus subtilis DSM 10 (setting [2])) was “n.i” each time.

As to `CC(=O)OC(C(=O)O)C(C)C1C(C)=CC2CC(C)CCC2C1(C)C(O)=C1C(=O)C(C)N(C)C1=O` (centres unmarked) [compound 1, Colposetin A], the MIC result (in assay [1]; in the assay with Escherichia coli; against Bacillus subtilis DSM 10 (setting [2])) was “n.i” throughout.

The values above are taken from paper PMC8224775, “Five Tetramic Acid Derivatives Isolated from the Iranian Fungus Colpoma quercinum CCTU A372” (Biomolecules, 2021).
